Measured values: the OPERA property sets (Mansouri et al. 2018)

| Compound | logP |
| --- | --- |
| O=C1c2ccccc2C(=O)C1c1nc2ccccc2cc1O | 5 |
| C=CCN(CCC#N)c1cc(NC(C)=O)c(N=Nc2c(Br)cc([N+](=O)[O-])cc2[N+](=O)[O-])cc1OC | 5.4 |
| CCn1c(O)c(N=Nc2ccc(Cl)cc2[N+](=O)[O-])c(C)c(C#N)c1=O | 3.4 |
| N#CCCN(CCO)c1ccc(N=Nc2ccc([N+](=O)[O-])cc2Cl)cc1 | 4 |
| Nc1ccc(N)c2c1C(=O)c1ccccc1C2=O | 3 |
| O=C1c2ccccc2C(=O)C1c1ccc2ccccc2n1 | 4.1 |
| O=[N+]([O-])c1cc(S(=O)(=O)Nc2ccccc2)ccc1Nc1ccccc1 | 4.6 |
| COc1cc(N=Nc2c(Br)cc([N+](=O)[O-])cc2[N+](=O)[O-])c(NC(C)=O)cc1N(CCOC(C)=O)CCOC(C)=O | 4.8 |
| CCN(CCO)c1ccc(N=Nc2ccc([N+](=O)[O-])cc2)cc1 | 4.3 |
| COc1cc(N)c2c(c1N)C(=O)c1ccccc1C2=O | 3.5 |
| CNc1cccc2c1C(=O)c1ccccc1C2=O | 4.1 |
| Cc1cc(N(CCO)CCO)ccc1N=Nc1ccc([N+](=O)[O-])cc1Cl | 4.3 |
